1 molecule from US20070238098A1, “Method and Kit for Predicting Adverse Side Effects of Paclitaxel Therapy” (priority 2003, published 2007) can be followed below.

This data set deals with breast cancer patients. Nature of the data set: clinical study of paclitaxel preoperative chemotherapy: adverse side effects graded by NCI-CTC. Format: in vivo, human. The conditions noted are these: 54 breast cancer patients, stage II or IIIa; 80 mg/m paclitaxel by intravenous infusion over 1 hour, once a week for 12 weeks. How it is done:
54 breast cancer patients were registered in a clinical study of paclitaxel preoperative chemotherapy. The following summarizes the criteria for patient selection. 1) Breast cancer patients age 70 or younger in stage II or IIIa as indicated by histopathological testing; and, 2) suitable physiological function (WBC >4,000 mm^3, platelet count […], hemoglobin level >10 g/dl, serum creatinine concentration <1.2 mg/dl, serum total bilirubin level <1.5 mg/dl, GOT/GPT <60/70). Patients who received proceeding chemotherapy or radiation therapy were excluded. Namely, all 54 patients who participated in this clinical study of paclitaxel preoperative chemotherapy were nearly at the same stage either clinically or histologically, and had no prior history of chemotherapy. […]
White blood cell count, red blood cell count, hemoglobin level and platelet count were measured weekly for each patient to evaluate the presence or absence of adverse side effects. Adverse side effects observed during the course of therapy were evaluated and graded based on the Common Toxicity Criteria of the US National Cancer Institute (NCI-CTC) (see Trotti, A., et al., Common toxicity criteria: version 2.0—an improved reference for grading the acute effects of cancer treatment: impact on radiotherapy, Int. J. Radiat. Oncol. Biol. Phys., 47: 13-47, 2000). […]

SMILES strings stand for the structures.

Turning to `CC(=O)O[C@H]1C(=O)[C@@]2(C)[C@H]([C@H](OC(=O)c3ccccc3)[C@]3(O)C[C@H](OC(=O)[C@H](O)[C@@H](NC(=O)c4ccccc4)c4ccccc4)C(C)=C1C3(C)C)[C@]1(OC(C)=O)CO[C@@H]1C[C@@H]2O` [paclitaxel], the “granulocytopenia observed (most frequently observed adverse side effect; NCI-CTC grade 1 to 4)” value was 24 patients.
